Source: US8394742B2, “Methods, compounds and compositions with genotype selective anticancer activity” (The Translation Genomics Research Institute, priority 2005, dated 2013)

Assays:
IMR-90 = assay: MTS cell proliferation assay, IMR-90 normal fibroblasts; assay type: cell-based, human; conditions: IMR-90, even at 200 μM
Protocol: The inhibition of cell proliferation by library compounds was evaluated using the CellTiter 96 Non-Radioactive Cell Proliferation Assay following the protocol recommended by the manufacturer (Promega, Madison Wis.). Briefly, 2000 cells were seeded in each well of 96-well plates in 90 μl growth medium. Cells were allowed to attach overnight followed by addition of 10 μl of serially diluted compounds into the plates. After incubation for 4 days at 37° C. in a humidified incubator, 20 μl of a 20:1 mixture of (3-(4,5-dimethylthiazol-2-yl)-5-(3-carboxymethoxyphenyl)-2-(4-sulfophenyl)-2H-tetrazolium, inner salt (MTS, 2 mg/ml) and an electron coupling reagent, phenazine methosulfate (PMS, 0.92 mg/ml), was added to each well and incubated for 3 hours at 37° C. Absorbance was then measured using the Wallace Victor microplate reader at 490 nm (PerkinElmer, Wellesley, Mass.). Data were expressed as the percentage of cell growth calculated from the absorbance corrected for background absorbance. The surviving fraction of cells was determined by dividing the mean absorbance values of the treated samples by the mean absorbance values of the DMSO control.
After generating the isogenic cell lines for the DPC4 gene, Applicants then carried out a screening process using the cell lines with the aim to identify compounds that selectively kill cells with deficient DPC4 function. […]

BxPC-3 cells = assay: Annexin V-FITC apoptosis assay; assay type: cell-based, human; conditions: BxPC-3, 25 μM, 24 hours; untreated control 4.6%
Protocol: Cells were grown and treated with UA62001 as described in the cell cycle distribution analysis section above. Twenty-four hours after the treatment with the compound, cell media containing detached floating cells were transferred to 15 ml conical tubes; while the attached cells were trypsinized and collected in the same tube. Cells were then pelleted by centrifugation at 1500 rpm for 5 min, washed with PBS and then resuspended in 1×binding buffer at a concentration of 1×10^6 cells/ml. One hundred microliters (1×10^5 cells) were incubated with 5 μl of Annexin V-FITC (BD Pharmingen) and propidium iodide for 15 min in the dark at room temperature. After adding 400 μl of the 1× binding buffer, the cells were analyzed by flow cytometry (BD Immunocytometry systems). Data were acquired and analyzed using CellQuest software.

Compound: O=C1c2ccccc2C(=O)c2c1ccc1c(=O)n(-c3ccccc3)[nH]c21 [UA62001, 2-phenyl-1H-Naphth [2,3-g]indazole-3,6,11(2H)-trione]
- growth inhibition (IMR-90): little growth inhibition
- percentage of cells in the M1 region (Annexin V staining) (BxPC-3 cells): 8.2%
